Data as given in patent US20060173015A1, “Cyclohexyldiamines as selective alpha 1a/1d adrenoreceptor antagonists for the treatment of benign prostatic hypertrophy and lower urinary tract symptoms” (priority 2004, published 2006).

How the values were obtained:
[1] = system: Mean Arterial Pressure (MAP); assay: Phenylephrine-induced MAP in an anesthetized canine model; assay type: in vivo; details: anesthetized dog
Procedure: (§1) In-Vivo Evaluation of α1-Adrenergic Antagonists on Prostatic Intraurethral Pressure (IUP) and Mean Arterial Pressure (MAP) in an Anesthetized Canine Model
(§2) An anesthetized dog was fitted with a balloon catheter for the measurement of changes in prostatic IUP and with a non-invasive blood pressure (NIBP) cuff for determination of MAP.
(§3) The pressor effects of challenge doses (i.v.) of the α-adrenergic agonist phenylephrine upon IUP and MAP were measured before and at various time points after a single dose (i.v.) of an α-adrenergic antagonist test compound (Compound 69) of the present invention.
(§4) Each treatment group was dosed with a test compound (0.01, 0.03, 0.1 and 0.5 mg/kg) in four separate experiments. The first challenge dose of phenylephrine was administered 30 mins prior to the test compound dose and at 30 min intervals thereafter for a total time period of 5 hrs (i.e at time minus 30 mins, time plus 30 mins, 1 hr, 1.5 hrs, 2 hrs, 2.5 hrs, 3 hrs, 3.5 hrs, 4 hrs, 4.5 hrs and 5 hrs).
(§5) The animals were fasted overnight, anesthetized with propofol (4 mg/kg IV or to effect), then intubated and anesthesia maintained using inhalation isoflurane (1-2% in oxygen at a flow rate of 2 l/min) with animals breathing spontaneously.
Blood pressure was measured non-invasively using a Critikon 8100 monitor. An infant blood pressure cuff was placed on a forelimb. Measurements were made automatically at 1-minute intervals during recording periods. […] Care was taken to accurately correlate the time of the MAP readings with the time of the phenylephrine dose. Recording periods typically lasted from 5 minutes before phenylephrine administration to 10 minutes after. The monitor was turned off between recording periods to allow the arterial blood vessels of the forelimb to recover from repeated cuff inflations.
Because of the variability of the MAP value, several values recorded during a five minute “control” period prior to the phenylephrine challenge dose were averaged to establish a mean baseline value for measuring the phenylephrine-induced change in MAP.
MAP readings also varied during the response to the phenylephrine challenge. A visual peak MAP value, seen on the monitor at about 3 minutes after the challenge dose, was recorded and used to calculate the maximum phenylephrine induced change in MAP. Additionally, MAP values were recorded at one minute intervals and curve fitted to estimate a maximum MAP value. The curve fitted maximum value was used to confirm the visual maximum value.
(§6) A test compound was administered via the cephalic vein using an appropriately sized IV catheter (Surflo, Terumo Medical Corporation or equivalent).
(§7) Prior to test compound administration, IUP and MAP responses to an individualized dose of phenylephrine (either 10 or 15 μg/kg IV, depending on the individual animal's response) was repeated 2 to 3 times to establish a baseline response. After test compound administration, the individualized phenylephrine dose was administered to each animal at 30 minute intervals over a period of 5 hours.
(§8) Data for phenylephrine-induced changes in IUP and MAP were tabulated for each treatment group and each experiment. A mean value and standard deviation for the phenylephrine-induced changes to the effect of a test compound on IUP and MAP at each dose was calculated and tabulated for each treatment group over the length of the 5.5 hour study.

[2] = system: Prostatic Intraurethral Pressure (IUP); assay: Phenylephrine-induced prostatic IUP in an anesthetized canine model; assay type: in vivo; details: anesthetized dog
Procedure: as §1, §2, §3, §4, §5
A 7F Fogarty balloon catheter lubricated with a water-soluble jelly was inserted into the urethra and advanced into the bladder (approximately 40 cm). The balloon was inflated with approximately water (0.2 mL). The catheter was slowly withdrawn from the bladder to just past the point of first resistance from the bladder neck in order to position the balloon within the prostatic urethra. The balloon was then inflated to approximately 0.7 mL. The balloon port of the catheter was connected to a Gould Statham pressure transducer, the output of which was connected to the pressure input of a Physio Control VSM1 Patient Monitor.
as §6, §7, §8

[3] = 0.01 mg/kg i.v., 0 hrs (baseline)
[4] = 0.01 mg/kg i.v., 0.5 hrs after dose
[5] = 0.01 mg/kg i.v., 1 hrs after dose
[6] = 0.01 mg/kg i.v., 2 hrs after dose
[7] = 0.01 mg/kg i.v., 3 hrs after dose
[8] = 0.01 mg/kg i.v., 4 hrs after dose
[9] = 0.01 mg/kg i.v., 5 hrs after dose
[10] = 0.03 mg/kg i.v., 0 hrs (baseline)
[11] = 0.03 mg/kg i.v., 0.5 hrs after dose
[12] = 0.03 mg/kg i.v., 1 hrs after dose
[13] = 0.03 mg/kg i.v., 1.5 hrs after dose
[14] = 0.03 mg/kg i.v., 2 hrs after dose
[15] = 0.03 mg/kg i.v., 2.5 hrs after dose
[16] = 0.03 mg/kg i.v., 3 hrs after dose
[17] = 0.03 mg/kg i.v., 3.5 hrs after dose
[18] = 0.03 mg/kg i.v., 4 hrs after dose
[19] = 0.03 mg/kg i.v., 4.5 hrs after dose
[20] = 0.03 mg/kg i.v., 5 hrs after dose
[21] = 0.1 mg/kg i.v., 0 hrs (baseline)
[22] = 0.1 mg/kg i.v., 0.5 hrs after dose
[23] = 0.1 mg/kg i.v., 1 hrs after dose
[24] = 0.1 mg/kg i.v., 1.5 hrs after dose
[25] = 0.1 mg/kg i.v., 2 hrs after dose
[26] = 0.1 mg/kg i.v., 2.5 hrs after dose
[27] = 0.1 mg/kg i.v., 3 hrs after dose
[28] = 0.1 mg/kg i.v., 3.5 hrs after dose
[29] = 0.1 mg/kg i.v., 4 hrs after dose
[30] = 0.1 mg/kg i.v., 4.5 hrs after dose
[31] = 0.1 mg/kg i.v., 5 hrs after dose
[32] = 0.5 mg/kg i.v., 0 hrs (baseline)
[33] = 0.5 mg/kg i.v., 0.5 hrs after dose
[34] = 0.5 mg/kg i.v., 1 hrs after dose
[35] = 0.5 mg/kg i.v., 1.5 hrs after dose
[36] = 0.5 mg/kg i.v., 2 hrs after dose
[37] = 0.5 mg/kg i.v., 2.5 hrs after dose
[38] = 0.5 mg/kg i.v., 3 hrs after dose
[39] = 0.5 mg/kg i.v., 3.5 hrs after dose
[40] = 0.5 mg/kg i.v., 4 hrs after dose
[41] = 0.5 mg/kg i.v., 4.5 hrs after dose
[42] = 0.5 mg/kg i.v., 5 hrs after dose

Compound: COc1ccc(S(=O)(=O)N[C@H]2CC[C@@H](N3CCN(c4ccccc4OCC(F)(F)F)CC3)CC2)cc1OC [Cpd 69, 3,4-Dimethoxy-N-cis-(4-{4-[2-(2,2,2-trifluoro-ethoxy)-phenyl]-piperazin-1-yl}-cyclohexyl)-benzenesulfonamide]
- MAP, normalized % of baseline (mean) [1, 3]: 100%
- MAP, normalized % of baseline (mean) [1, 4]: 88.2%
- MAP, normalized % of baseline (mean) [1, 5]: 68.9%
- MAP, normalized % of baseline (mean) [1, 6]: 83.1%
- MAP, normalized % of baseline (mean) [1, 7]: 88.0%
- MAP, normalized % of baseline (mean) [1, 8]: 82.0%
- MAP, normalized % of baseline (mean) [1, 9]: 91.1%
- MAP, normalized % of baseline (mean) [1, 10]: 100%
- MAP, normalized % of baseline (mean) [1, 11]: 39.9%
- MAP, normalized % of baseline (mean) [1, 12]: 40.9%
- MAP, normalized % of baseline (mean) [1, 13]: 44.1%
- MAP, normalized % of baseline (mean) [1, 14]: 61.0%
- MAP, normalized % of baseline (mean) [1, 15]: 59.4%
- MAP, normalized % of baseline (mean) [1, 16]: 59.2%
- MAP, normalized % of baseline (mean) [1, 17]: 59.8%
- MAP, normalized % of baseline (mean) [1, 18]: 58.4%
- MAP, normalized % of baseline (mean) [1, 19]: 71.1%
- MAP, normalized % of baseline (mean) [1, 20]: 90.3%
- MAP, normalized % of baseline (mean) [1, 21]: 100%
- MAP, normalized % of baseline (mean) [1, 22]: 45.5%
- MAP, normalized % of baseline (mean) [1, 23]: 47.4%
- MAP, normalized % of baseline (mean) [1, 24]: 35.0%
- MAP, normalized % of baseline (mean) [1, 25]: 44.0%
- MAP, normalized % of baseline (mean) [1, 26]: 54.0%
- MAP, normalized % of baseline (mean) [1, 27]: 51.3%
- MAP, normalized % of baseline (mean) [1, 28]: 56.4%
- MAP, normalized % of baseline (mean) [1, 29]: 47.0%
- MAP, normalized % of baseline (mean) [1, 30]: 73.3%
- MAP, normalized % of baseline (mean) [1, 31]: 84.3%
- MAP, normalized % of baseline (mean) [1, 32]: 100%
- MAP, normalized % of baseline (mean) [1, 33]: 27.6%
- MAP, normalized % of baseline (mean) [1, 34]: 18.4%
- MAP, normalized % of baseline (mean) [1, 35]: 16.0%
- MAP, normalized % of baseline (mean) [1, 36]: 18.3%
- MAP, normalized % of baseline (mean) [1, 37]: 19.4%
- MAP, normalized % of baseline (mean) [1, 38]: 23.8%
- MAP, normalized % of baseline (mean) [1, 39]: 19.2%
- MAP, normalized % of baseline (mean) [1, 40]: 32.3%
- MAP, normalized % of baseline (mean) [1, 41]: 32.1%
- MAP, normalized % of baseline (mean) [1, 42]: 29.4%
- IUP, normalized % of baseline (mean) [2, 3]: 100%
- IUP, normalized % of baseline (mean) [2, 4]: 78.1%
- IUP, normalized % of baseline (mean) [2, 5]: 81.9%
- IUP, normalized % of baseline (mean) [2, 6]: 83.6%
- IUP, normalized % of baseline (mean) [2, 7]: 83.3%
- IUP, normalized % of baseline (mean) [2, 8]: 83.0%
- IUP, normalized % of baseline (mean) [2, 9]: 84.5%
- IUP, normalized % of baseline (mean) [2, 10]: 100%
- IUP, normalized % of baseline (mean) [2, 11]: 64.8%
- IUP, normalized % of baseline (mean) [2, 12]: 64.8%
- IUP, normalized % of baseline (mean) [2, 13]: 70.8%
- IUP, normalized % of baseline (mean) [2, 14]: 71.1%
- IUP, normalized % of baseline (mean) [2, 15]: 79.1%
- IUP, normalized % of baseline (mean) [2, 16]: 81.1%
- IUP, normalized % of baseline (mean) [2, 17]: 81.6%
- IUP, normalized % of baseline (mean) [2, 18]: 84.8%
- IUP, normalized % of baseline (mean) [2, 19]: 83.5%
- IUP, normalized % of baseline (mean) [2, 20]: 83.8%
- IUP, normalized % of baseline (mean) [2, 21]: 100%
- IUP, normalized % of baseline (mean) [2, 22]: 39.5%
- IUP, normalized % of baseline (mean) [2, 23]: 48.4%
- IUP, normalized % of baseline (mean) [2, 24]: 56.3%
- IUP, normalized % of baseline (mean) [2, 25]: 61.3%
- IUP, normalized % of baseline (mean) [2, 26]: 67.1%
- IUP, normalized % of baseline (mean) [2, 27]: 69.9%
- IUP, normalized % of baseline (mean) [2, 28]: 75.2%
- IUP, normalized % of baseline (mean) [2, 29]: 78.8%
- IUP, normalized % of baseline (mean) [2, 30]: 74.2%
- IUP, normalized % of baseline (mean) [2, 31]: 77.3%
- IUP, normalized % of baseline (mean) [2, 32]: 100%
- IUP, normalized % of baseline (mean) [2, 33]: 17.4%
- IUP, normalized % of baseline (mean) [2, 34]: 16.1%
- IUP, normalized % of baseline (mean) [2, 35]: 27.0%
- IUP, normalized % of baseline (mean) [2, 36]: 29.1%
- IUP, normalized % of baseline (mean) [2, 37]: 36.1%
- IUP, normalized % of baseline (mean) [2, 38]: 38.8%
- IUP, normalized % of baseline (mean) [2, 39]: 45.5%
- IUP, normalized % of baseline (mean) [2, 40]: 46.4%
- IUP, normalized % of baseline (mean) [2, 41]: 48.0%
- IUP, normalized % of baseline (mean) [2, 42]: 54.4%
